# Structures can show the parent of a compound that is named as a salt.
# Test system: wildtype Wnt signaling cascade
# Assay: HEK293 TOP Assay (Super TopFlash luciferase reporter, Wnt-3a stimulated)
# Type: cell-based
# Conditions: Homo sapiens, HEK293, 16 h, HEK293 TOP reporter cell line, Wnt-3a at EC50, 16 hours incubation, compound dilution series 50 μM to 15 nM
# Procedure: In order to discover and characterize small molecules which inhibit the wildtype Wnt pathway, a cellular reporter assay was employed. The corresponding assay cell was generated by transfection of the mammalian cell line HEK293 (ATCC, #CRL-1573) with the Super TopFlash vector (Morin, Science 275, 1997, 1787-1790; Molenaar et al., Cell 86 (3), 1996, 391-399). The HEK293 cell line is cultivated at 37° C. and 5% CO2 in DMEM (Life Technologies, #41965-039), supplemented with 2 mM glutamine, 20 mM HEPES, 1.4 mM pyruvate, 0.15% Na-bicarbonate and 10% foetal bovine serum (GIBCO, #10270). Stable transfectants were generated by selection with 300 μg/ml Hygromycin.
# In preparation of the assay, the two cell lines were plated 24 hrs before beginning the test at 10000 cells per well in a 384 micro titre plate (MTP) in 30 μl growth medium. […] The recombinant human Wnt-3a was thereby applied between 2500 and 5 ng/ml in two-fold dilution steps.
# Selective inhibitory activity for small molecules on the wildtype Wnt pathway was determined after parallel incubation of both (TOP and FOP) HEK293 reporter cell lines with a compound dilution series from 50 μM to 15 nM in steps of 3.16-fold dilutions in CAFTY buffer (130 mM sodium chloride, 5 mM potassium chloride, 20 mM HEPES, 1 mM magnesium chloride, 5 mM sodium bicarbonate, pH 7.4) containing 2 mM Ca^2+ and 0.01% BSA.
# The compounds were thereby serially prediluted in 100% DMSO and thereafter 50 fold into the CAFTY compound dilution buffer (described above).
row,SMILES,IC50 [µM]
1,"CNC(=O)c1nc[nH]c1C(=O)Nc1ccc(NC(=O)c2ccco2)cc1 [Example 329, N^5-{4-[(furan-2-ylcarbonyl)amino]phenyl}-N^4-methyl-1H-imidazole-4,5-dicarboxamide]",50
2,"O=C(Nc1ccc(NC(=O)c2[nH]cnc2C(=O)NCCN2CCCCC2)cn1)c1ccc(F)cc1 [Example 117, N^5-{6-[(4-fluorobenzoyl)amino]pyridin-3-yl}-N^4-[2-(piperidin-1-yl)ethyl]-1H-imidazole-4,5-dicarboxamide]",40
3,"CNC(=O)c1nc[nH]c1C(=O)Nc1ccc(NC(=O)c2ccc(F)cc2)c(C)c1 [Example 91, N^5-{4-[(4-fluorobenzoyl)amino]-3-methylphenyl}-N^4-methyl-1H-imidazole-4,5-dicarboxamide]",44.5
4,"CNC(=O)c1nc[nH]c1C(=O)Nc1ccc(NC(=O)c2cccc(OC)c2F)cc1 [Example 365, N^5-{4-[(2-fluoro-3-methoxybenzoyl)amino]phenyl}-N^4-methyl-1H-imidazole-4,5-dicarboxamide]",50
5,"CNC(=O)c1nc[nH]c1C(=O)Nc1ccc(NC(=O)c2ccnc(Cl)c2)cc1 [Example 351, N^5-(4-{[(2-chloropyridin-4-yl)carbonyl]amino}phenyl)-N^4-methyl-1H-imidazole-4,5-dicarboxamide]",12.5
6,"O=C(Nc1ccc(NC(=O)c2nc[nH]c2C(=O)N2CCC2)cc1)c1ccc(F)cc1 [Example 143, 5-(azetidin-1-ylcarbonyl)-N-{4-[(4-fluorobenzoyl)amino]phenyl}-1H-imidazole-4-carboxamide]",29.5
7,"CNC(=O)c1nc[nH]c1C(=O)Nc1ccc(NC(=O)c2ccccc2N(C)C)cc1 [Example 339, N^5-(4-{[2-(dimethylamino)benzoyl]amino}phenyl)-N^4-methyl-1H-imidazole-4,5-dicarboxamide]",45.5
8,"CNC(=O)c1nc[nH]c1C(=O)Nc1ccc(NC(=O)c2cccc(OC)c2)cc1 [Example 305, N^5-{4-[(3-methoxybenzoyl)amino]phenyl}-N^4-methyl-1H-imidazole-4,5-dicarboxamide]",31.5
9,"CNC(=O)c1nc[nH]c1C(=O)Nc1ccc(NC(=O)c2ccc(C(F)(F)F)cc2)cc1 [Example 316, N^4-methyl-N^5-(4-{[4-(trifluoromethyl)benzoyl]amino}phenyl)-1H-imidazole-4,5-dicarboxamide]",13.5
10,"CNC(=O)c1nc[nH]c1C(=O)Nc1ccc(NC(=O)c2cncs2)cc1 [Example 345, N^4-methyl-N^5-{4-[(1,3-thiazol-5-ylcarbonyl)amino]phenyl}-1H-imidazole-4,5-dicarboxamide]",50
11,"CNC(=O)c1nc[nH]c1C(=O)Nc1ccc(NC(=O)c2ccc(F)cc2)c(OC)c1 [Example 103, N^5-{4-[(4-fluorobenzoyl)amino]-3-methoxyphenyl}-N^4-methyl-1H-imidazole-4,5-dicarboxamide]",38
12,"CNC(=O)c1nc[nH]c1C(=O)Nc1ccc(NC(=O)c2cccc(N(C)C)c2)cc1 [Example 317, N^5-(4-{[3-(dimethylamino)benzoyl]amino}phenyl)-N^4-methyl-1H-imidazole-4,5-dicarboxamide]",50
13,"CNC(=O)c1nc[nH]c1C(=O)Nc1ccc(NC(=O)c2cc(C)cc(C)c2)cc1 [Example 335, N^5-{4-[(3,5-dimethylbenzoyl)amino]phenyl}-N^4-methyl-1H-imidazole-4,5-dicarboxamide]",21.5
14,"CNC(=O)c1nc[nH]c1C(=O)Nc1ccc(NC(=O)c2cc(F)cc(C#N)c2)cc1 [Example 371, N^5-{4-[(3-cyano-5-fluorobenzoyl)amino]phenyl}-N^4-methyl-1H-imidazole-4,5-dicarboxamide]",50
15,"CNC(=O)c1nc[nH]c1C(=O)Nc1ccc(NC(=O)c2ccc(C)cc2)cc1 [Example 337, N^4-methyl-N^5-{4-[(4-methylbenzoyl)amino]phenyl}-1H-imidazole-4,5-dicarboxamide]",23.5
16,"CN(C)CCNC(=O)c1nc[nH]c1C(=O)Nc1ccc(NC(=O)c2ccc(F)cc2)nc1 [Example 116, N^4-[2-(dimethylamino)ethyl]-N^5-{6-[(4-fluorobenzoyl)amino]pyridin-3-yl}-1H-imidazole-4,5-dicarboxamide]",44
17,"CNC(=O)c1nc[nH]c1C(=O)Nc1ccc(NC(=O)c2ccc(F)cc2O)cc1 [Example 245, N^5-{4-[(4-fluoro-2-hydroxybenzoyl)amino]phenyl}-N^4-methyl-1H-imidazole-4,5-dicarboxamide]",50
18,"CNC(=O)c1nc[nH]c1C(=O)Nc1ccc(NC(=O)c2ccc(OC)c(C)c2)cc1 [Example 355, N^5-{4-[(4-methoxy-3-methylbenzoyl)amino]phenyl}-N^4-methyl-1H-imidazole-4,5-dicarboxamide]",25

# These reach a lower IC50. Values come first.
row,IC50 [µM],SMILES
1,11.4,"CNC(=O)c1nc[nH]c1C(=O)Nc1ccc(NC(=O)c2ccc(OC)cc2)cc1 [Example 304, N^5-{4-[(4-methoxybenzoyl)amino]phenyl}-N^4-methyl-1H-imidazole-4,5-dicarboxamide]"
2,11.2,"CNC(=O)c1nc[nH]c1C(=O)Nc1ccc(NC(=O)c2ccc(C)cn2)cc1 [Example 357, N^4-methyl-N^5-(4-{[(5-methylpyridin-2-yl)carbonyl]amino}phenyl)-1H-imidazole-4,5-dicarboxamide]"
3,8.6,"CNC(=O)c1nc[nH]c1C(=O)Nc1ccc(NC(=O)c2cccc(F)c2)cc1 [Example 331, N^5-{4-[(3-fluorobenzoyl)amino]phenyl}-N^4-methyl-1H-imidazole-4,5-dicarboxamide]"
4,7.2,"COc1cc(NC(=O)c2[nH]cnc2C(=O)NCCN(C)C)ccc1NC(=O)c1ccc(F)cc1 [Example 104, N^4-[2-(dimethylamino)ethyl]-N^5-{4-[(4-fluorobenzoyl)amino]-3-methoxyphenyl}-1H-imidazole-4,5-dicarboxamide]"
5,6.7,"CN1CCN(CCCNC(=O)c2[nH]cnc2C(=O)Nc2ccc(NC(=O)c3ccc(F)cc3)cc2)CC1 [Example 181, N^4-{4-[(4-fluorobenzoyl)amino]phenyl}-N^5-[3-(4-methylpiperazin-1-yl)propyl]-1H-imidazole-4,5-dicarboxamide]"
6,6.5,"CNC(=O)c1nc[nH]c1C(=O)Nc1ccc(NC(=O)c2ccc(C#N)c(F)c2)cc1 [Example 350, N^5-{4-[(4-cyano-3-fluorobenzoyl)amino]phenyl}-N^4-methyl-1H-imidazole-4,5-dicarboxamide]"
7,5.7,"CN1CCN(NC(=O)c2[nH]cnc2C(=O)Nc2ccc(NC(=O)c3ccc(F)cc3)cc2)CC1 [Example 193, N^4-{4-[(4-fluorobenzoyl)amino]phenyl}-N^5-(4-methylpiperazin-1-yl)-1H-imidazole-4,5-dicarboxamide]"
8,3.35,"CNC(=O)c1nc[nH]c1C(=O)Nc1ccc(NC(=O)c2ccc(Cl)c(Cl)c2)cc1 [Example 308, N^5-{4-[(3,4-dichlorobenzoyl)amino]phenyl}-N^4-methyl-1H-imidazole-4,5-dicarboxamide]"
9,3.2,"CNC(=O)c1nc[nH]c1C(=O)Nc1ccc(NC(=O)c2cccc(F)c2C)cc1 [Example 324, N^5-{4-[(3-fluoro-2-methylbenzoyl)amino]phenyl}-N^4-methyl-1H-imidazole-4,5-dicarboxamide]"
10,2.7,"O=C(Nc1ccc(NC(=O)c2nc[nH]c2C(=O)N2CCNCC2)cc1)c1ccc(F)cc1Cl [Example 289, N-{4-[(2-chloro-4-fluorobenzoyl)amino]phenyl}-5-(piperazin-1-ylcarbonyl)-1H-imidazole-4-carb oxamide hydrochloric acid salt]"
11,2.65,"Cc1cc(NC(=O)c2[nH]cnc2C(=O)NCCN2CCCCC2)ccc1NC(=O)c1ccc(F)cc1 [Example 93, N^5-{4-[(4-fluorobenzoyl)amino]-3-methylphenyl}-N^4-[2-(piperidin-1-yl)ethyl]-1H-imidazole-4,5-dicarboxamide]"
12,2.25,"O=C(Nc1ccc(NC(=O)c2nc[nH]c2C(=O)NC(CO)CO)cc1)c1ccc(F)cc1Cl [Example 172, N^4-{4-[(2-chloro-4-fluorobenzoyl)amino]phenyl}-N^5-(1,3-dihydroxypropan-2-yl)-1H-imidazole-4,5-dicarboxamide]"
13,1.2,"CC1CN(CCNC(=O)c2[nH]cnc2C(=O)Nc2ccc(NC(=O)c3ccc(F)cc3Cl)cc2)CC(C)O1 (stereo not drawn) [Example 301, N^4-{4-[(2-4-fluorochlorobenzoyl)amino]phenyl}-N^5-[2-(2,6-dimethylmorpholin-4-yl)ethyl]-1H-imidazole-4,5-dicarboxamide]"
14,0.77,"COC(=O)c1nc[nH]c1C(=O)Nc1ccc(NC(=O)c2ccccc2Cl)nc1 [Example 111, methyl 5-({6-[(2-chlorobenzoyl)amino]pyridin-3-yl}carbamoyl)-1H-imidazole-4-carboxylate]"
15,0.71,"O=C(Nc1ccc(NC(=O)c2[nH]cnc2C(=O)NCCN2CCCC2=O)cc1)c1ccc(F)cc1Cl [Example 398, N^5-{4-[(2-chloro-4-fluorobenzoyl)amino]phenyl}-N^4-[2-(2-oxopyrrolidin-1-yl)ethyl]-1H-imidazole-4,5-dicarboxamide]"

# Source: patent US9884063B2, “Amido-substituted azole compounds” (Bayer Pharma Aktiengesellschaft, priority 2014, dated 2018)
